Paper PMC9230533, “Discovery of Triple Inhibitors of Both SARS-CoV-2 Proteases and Human Cathepsin L” (Pharmaceuticals, 2022)
Like-named read-outs stand apart in the source and are kept apart here.

Columns and labels:
SARS-CoV-2 Mpro = SARS-CoV-2 Mpro (Severe acute respiratory syndrome coronavirus 2, UniProt P0DTD1); assay: SARS-CoV-2 Mpro fluorometric (FRET peptide) enzymatic inhibition assay; type: biochemical; conditions: for fold more potent than disulfiram against Mpro: ratio of IC50 values vs disulfiram
SARS-CoV-2 = SARS-CoV-2 infectivity cells-based assay (Huh7.5.1, immunofluorescence), antiviral efficacy; type: cell-based; conditions: for EC50: Severe acute respiratory syndrome coronavirus 2, Huh-7.5.1, 48 h, read-out: SARS-CoV-2 Infectivity Cells-Based Assay EC50; for CC50/EC50 Ratio (therapeutic ratio): CC50 over EC50
human cathepsin L = target: T1, human cathepsin L (Homo sapiens, UniProt P07711); assay: Human cathepsin L fluorogenic enzymatic inhibition assay; type: biochemical; conditions: for inhibitory effect on cathepsin L (in words): dose-response, Figure 4
T1 construct: purchased R & D Systems
T1 sequence (P07711 114-333): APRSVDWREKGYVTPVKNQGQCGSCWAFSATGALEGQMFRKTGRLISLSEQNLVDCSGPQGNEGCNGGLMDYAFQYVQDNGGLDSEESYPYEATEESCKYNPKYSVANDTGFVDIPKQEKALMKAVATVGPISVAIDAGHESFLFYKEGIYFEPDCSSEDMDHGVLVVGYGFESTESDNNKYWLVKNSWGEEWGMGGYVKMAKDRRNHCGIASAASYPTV

[1] = Cell viability / cytotoxicity in the SARS-CoV-2 Huh7.5.1 infectivity assay; conditions: human, Huh7.5.1 cells infected with SARS-CoV-2 (MOI 1.0), tested 60 to 0.08 µM, read-out: SARS-CoV-2 Infectivity Cells-Based Assay CC50 (converted)
SARS-CoV-2 PLpro = SARS-CoV-2 PLpro (Severe acute respiratory syndrome coronavirus 2, UniProt P0DTD1); assay: SARS-CoV-2 PLpro fluorogenic enzymatic inhibition assay; type: biochemical
[2] = cited from earlier work
SARS-CoV PLpro = conditions: cited from earlier work
[3] = Oral median lethal dose in mice (literature); type: in vivo; conditions: mouse, ratio of cited LD50 values
[4] = 1 nM cathepsin L, Z-Phe-Arg-AMC substrate, read-out: Cathepsin L IC50
[5] = 50 nM Mpro, 10 µM MCA-[…]-K(DNP)-K-NH2, no DTT, 37 °C, read-out: Mpro IC50
[6] = 24.46 nM PLpro, 50 µM Z-RLRGG-AMC, no DTT, 37 °C, read-out: PLpro IC50

Row | SMILES | IC50 (SARS-CoV-2 Mpro) | fold more potent than disulfiram against Mpro (SARS-CoV-2 Mpro) | EC50 (SARS-CoV-2) | IC50 (human cathepsin L) | CC50 at 48 h [1] | IC50 (SARS-CoV-2 PLpro) | LD50 Mouse oral [2] | IC50 (human cathepsin L; [4]) | inhibitory effect on cathepsin L (in words) (human cathepsin L) | IC50 (SARS-CoV-2 Mpro; [5]) | CC50/EC50 Ratio (therapeutic ratio) (SARS-CoV-2; Huh7.5.1 cells) | IC50 (SARS-CoV-2 PLpro; [6]) | IC50 (SARS-CoV PLpro) | concentration range of antiviral activity (SARS-CoV-2; Huh7.5.1 cells, MOI 1.0, 48 h) | fold more potent than disulfiram against PLpro (SARS-CoV-2 PLpro; ratio of IC50 values vs disulfiram) | LD50 relative to LD50 of disulfiram [3]
1 | CCOC(=S)SSC(=S)OCC [RI175, O,O-di-Ethyl dithiobis-thioformate] | 300 ± 100 nM | about 5 fold | > 60000 nM | 1900 ± 600 nM | > 60000 nM | 600 ± 100 nM | 1200 [32] mg/kg | – | – | – | – | – | – | – | – | –
2 | CN(C(=S)SSC(=S)N(C)c1ccccc1)c1ccccc1 [RI176, di-Methyl-di-Phenyl-thiuram disulfide] | > 50000 nM | – | – | – | – | > 50000 nM | – | > 50000 nM | did not seem to have any inhibitory effect | – | – | – | – | – | – | –
3 | CN1CCN(C(=S)SSC(=S)N2CCN(C)CC2)CC1 [RI171, di-4-Methylpiperazine-thiuram disulfide] | – | – | 1900 ± 200 nM | – | 1700 nM | – | 100 [26] mg/kg | 4500 ± 700 nM | – | 3200 ± 100 nM | 0.9 | 1900 ± 100 nM | – | – | – | –
4 | CCN(CC)C(=S)SSC(=S)N(CC)CC [Disulfiram, reference compound] | – | – | 500 ± 200 nM | 2200 ± 1400 nM | 900 nM | – | 1980 [29] mg/kg | – | – | – | – | – | 24100 nM | – | – | –
5 | S=C(SSC(=S)N1CCOCC1)N1CCOCC1 [RI173, di-Morpholine-thiuram disulfide] | – | 2.5 fold | 100 nM | – | 300 nM | – | 3250 [31] mg/kg | 1700 ± 600 nM | – | 600 ± 100 nM | 3 | 200 ± 100 nM | – | 100 to 200 nM | 19 fold | approximately 1.6 times
6 | CC(C)N(C(=S)SSC(=S)N(C(C)C)C(C)C)C(C)C [RI177, tetra-IsoPropyl-thiuram disulfide] | 3800 ± 600 nM | – | > 60000 nM | – | > 60000 nM | > 50000 nM | – | > 50000 nM | did not seem to have any inhibitory effect | – | – | – | – | – | – | –
7 | S=C(SSC(=S)N1CCCC1)N1CCCC1 [RI172, di-Pyrrolidine-thiuram disulfide] | 600 ± 100 nM | 2.5 fold | < 80 nM | 200 nM | < 80 nM | 700 nM | – | – | – | – | – | – | – | – | – | –
8 | CN(C)C(=S)SSC(=S)N(C)C [RI174, tetra-Methyl-thiuram disulfide] | 2000 ± 300 nM | – | < 80 nM | 16900 ± 6900 nM | < 80 nM | 600 nM | 1350 [33] mg/kg | – | – | – | – | – | – | – | – | –
